Laboratory results: ChEMBL document CHEMBL1201862, “PubChem BioAssay data set” (2004)
Values belong to the compound of their own block, whether it stands above or below them. The source made the active and inactive calls.

Key:
HEK293 [1] = assay: cells; type: functional, cell-based; settings: Homo sapiens
[2] = viability of PTEN-deleted HCT116 cells – cell-based, HCT116 PTEN knockout, dose response (AID 1047); type: functional;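 also: HCT116 colon tumor cells with PTEN knocked out; cells exposed to compound for 60 hours before readout; potency for loss of cell viability measured by luminescence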
[3] = target: Nucleotide-binding oligomerization domain-containing protein 1 (Homo sapiens, UniProt Q9Y239); assay: blockers of NOD1 pathway activity – revised, SAR follow-up (AID 2333); type: functional
[4] = target: Nucleotide-binding oligomerization domain-containing protein 2 (Homo sapiens, UniProt Q9HC29); assay: PubChem AID 2334; type: functional
HEK293 [5] = assay: inhibition of NOD1-driven NF-kB reporter – cell-based, luminescence, uHTS, primary screen (AID 1578); type: functional; settings: Homo sapiens
HEK293 [6] = assay: cells; type: functional, cell-based; settings: Homo sapiens; remark: listed apart in the source
[7] = viability of HCT116 lacking mutant beta-catenin – cell-based, human colon tumor, dose response (AID 1045); type: functional;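 also: HCT116 colon tumor cells with beta catenin knocked out; cells exposed to compound for 60 hours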
HEK293 [8] = assay: NOD2 signaling inhibitors in MDP-stimulated cells, cell-based, uHTS, luminescence (AID 2001); type: functional; settings: Homo sapiens
HEK293 [9] = assay: cells; settings: Homo sapiens
Tumor necrosis factor = Tumor necrosis factor (Homo sapiens, UniProt P01375); assay: analog potency on TNFa NF-kB signaling – cell-based, revised, SAR follow-up (AID 2337); type: functional
[10] = target: Lysine-specific demethylase 4C (Homo sapiens, UniProt Q9H3R0); assay: inhibition of JMJD2C H3K9me3 demethylation – biochemical, DELFIA europium, cherry-picked samples, dose response (AID 488835); type: functional
[11] = target: T1, Tyrosine-protein phosphatase non-receptor type 22 (Homo sapiens, UniProt Q9Y2R2); type: functional
T1 sequence (Q9Y2R2 whole entry): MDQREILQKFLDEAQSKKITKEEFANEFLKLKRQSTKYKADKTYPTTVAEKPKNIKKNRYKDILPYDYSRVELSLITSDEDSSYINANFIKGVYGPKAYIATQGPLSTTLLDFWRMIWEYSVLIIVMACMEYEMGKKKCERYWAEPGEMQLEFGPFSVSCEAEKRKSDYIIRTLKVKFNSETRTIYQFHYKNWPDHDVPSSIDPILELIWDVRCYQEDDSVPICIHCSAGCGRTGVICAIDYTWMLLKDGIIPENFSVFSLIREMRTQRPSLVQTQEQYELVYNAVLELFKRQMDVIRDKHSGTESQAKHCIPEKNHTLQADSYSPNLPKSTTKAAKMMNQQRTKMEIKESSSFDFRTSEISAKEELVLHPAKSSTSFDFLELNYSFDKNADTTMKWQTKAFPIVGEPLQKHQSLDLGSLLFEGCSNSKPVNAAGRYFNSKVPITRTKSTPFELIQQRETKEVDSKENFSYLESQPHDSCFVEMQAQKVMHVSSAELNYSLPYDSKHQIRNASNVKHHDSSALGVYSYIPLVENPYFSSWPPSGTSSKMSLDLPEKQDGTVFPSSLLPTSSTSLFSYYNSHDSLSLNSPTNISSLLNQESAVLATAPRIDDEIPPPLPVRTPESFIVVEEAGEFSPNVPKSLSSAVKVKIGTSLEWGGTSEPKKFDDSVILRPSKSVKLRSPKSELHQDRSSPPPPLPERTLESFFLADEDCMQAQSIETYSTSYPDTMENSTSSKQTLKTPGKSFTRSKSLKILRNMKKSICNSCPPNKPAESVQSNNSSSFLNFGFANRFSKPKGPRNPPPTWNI

[12] = target: T2, Tyrosine-protein phosphatase non-receptor type 7 (Homo sapiens, UniProt P35236); type: functional
T2 sequence (P35236 whole entry): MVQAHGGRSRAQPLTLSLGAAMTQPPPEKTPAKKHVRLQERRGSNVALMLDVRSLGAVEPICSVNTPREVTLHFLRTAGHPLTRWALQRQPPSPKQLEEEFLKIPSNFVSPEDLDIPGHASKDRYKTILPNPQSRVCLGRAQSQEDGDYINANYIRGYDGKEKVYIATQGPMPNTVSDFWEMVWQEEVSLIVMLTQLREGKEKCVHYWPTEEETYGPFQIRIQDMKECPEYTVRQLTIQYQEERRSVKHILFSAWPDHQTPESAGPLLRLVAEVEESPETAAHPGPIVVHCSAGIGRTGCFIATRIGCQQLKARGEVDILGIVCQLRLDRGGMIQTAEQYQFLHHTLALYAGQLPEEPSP

[13] = target: T1, Tyrosine-protein phosphatase non-receptor type 22; type: functional; remark: listed apart in the source
[14] = target: T3, Delta-type opioid receptor (Homo sapiens, UniProt P41143); assay: delta opioid receptor blockers – image-based, SAR follow-up (AID 2357); type: functional
[15] = target: T4, Kappa-type opioid receptor (Homo sapiens, UniProt P41145); assay: kappa opioid receptor activation potency – imaging, image-based, SAR follow-up (AID 2359); type: functional
[16] = target: T4, Kappa-type opioid receptor; assay: kappa opioid receptor blockers, cell-based, luminescence, beta-arrestin, SAR follow-up (AID 2285); type: functional
[17] = target: T3, Delta-type opioid receptor; assay: DOR agonists, SAR follow-up, image-based (AID 2370); type: functional
Mu-type opioid receptor [18] = target: T5, Mu-type opioid receptor (Homo sapiens, UniProt P35372); assay: mu opioid receptor blockers – image-based, SAR follow-up (AID 2420); type: functional;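 also: compounds added before stimulation of receptor with agonist DAMGO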
Mu-type opioid receptor [19] = target: T5, Mu-type opioid receptor; assay: mu opioid receptor activators, image-based, SAR follow-up (AID 2352); type: functional
[20] = target: T4, Kappa-type opioid receptor; assay: kappa opioid receptor blockers, image-based, SAR follow-up (AID 2348); type: functional

T4 sequence (P41145 whole entry): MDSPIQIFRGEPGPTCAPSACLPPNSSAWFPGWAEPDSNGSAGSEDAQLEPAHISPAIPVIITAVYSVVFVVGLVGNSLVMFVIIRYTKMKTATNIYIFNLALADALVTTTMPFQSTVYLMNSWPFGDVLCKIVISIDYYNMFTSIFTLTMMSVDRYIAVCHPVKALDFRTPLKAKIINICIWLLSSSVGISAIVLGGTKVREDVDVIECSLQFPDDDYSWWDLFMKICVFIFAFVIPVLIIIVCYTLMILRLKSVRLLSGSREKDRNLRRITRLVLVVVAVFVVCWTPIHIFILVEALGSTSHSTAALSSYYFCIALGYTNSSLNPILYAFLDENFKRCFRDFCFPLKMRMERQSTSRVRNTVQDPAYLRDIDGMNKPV
T5 sequence (P35372 whole entry): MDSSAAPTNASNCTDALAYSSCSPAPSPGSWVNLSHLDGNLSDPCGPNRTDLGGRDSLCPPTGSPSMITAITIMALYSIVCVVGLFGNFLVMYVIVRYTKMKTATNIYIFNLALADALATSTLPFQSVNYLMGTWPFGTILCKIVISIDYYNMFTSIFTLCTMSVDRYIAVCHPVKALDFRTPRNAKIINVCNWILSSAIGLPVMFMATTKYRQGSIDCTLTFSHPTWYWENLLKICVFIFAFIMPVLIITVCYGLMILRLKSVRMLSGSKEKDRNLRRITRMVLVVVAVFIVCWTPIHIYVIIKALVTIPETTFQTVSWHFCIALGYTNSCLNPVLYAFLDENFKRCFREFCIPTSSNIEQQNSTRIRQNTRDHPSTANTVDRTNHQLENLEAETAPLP
T3 sequence (P41143 whole entry): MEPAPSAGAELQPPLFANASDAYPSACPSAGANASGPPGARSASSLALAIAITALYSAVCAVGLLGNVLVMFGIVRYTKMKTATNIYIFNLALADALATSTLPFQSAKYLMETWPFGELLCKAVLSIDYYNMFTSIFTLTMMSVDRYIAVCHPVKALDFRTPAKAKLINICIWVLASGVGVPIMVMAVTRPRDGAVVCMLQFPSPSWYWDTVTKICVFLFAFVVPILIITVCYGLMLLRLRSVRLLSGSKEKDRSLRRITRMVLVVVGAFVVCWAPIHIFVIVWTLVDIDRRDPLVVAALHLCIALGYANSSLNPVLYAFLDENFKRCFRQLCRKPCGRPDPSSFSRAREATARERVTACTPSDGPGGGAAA
Chain of Tumor necrosis factor (P01375 whole entry): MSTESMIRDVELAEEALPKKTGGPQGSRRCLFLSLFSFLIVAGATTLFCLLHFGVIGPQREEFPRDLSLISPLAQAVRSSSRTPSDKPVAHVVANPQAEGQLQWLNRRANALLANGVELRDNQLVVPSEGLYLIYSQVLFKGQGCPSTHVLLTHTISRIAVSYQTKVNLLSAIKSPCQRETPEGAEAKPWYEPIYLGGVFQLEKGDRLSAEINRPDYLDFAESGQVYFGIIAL
Chain of Nucleotide-binding oligomerization domain-containing protein 1 (Q9Y239 whole entry, the tested form may be a part): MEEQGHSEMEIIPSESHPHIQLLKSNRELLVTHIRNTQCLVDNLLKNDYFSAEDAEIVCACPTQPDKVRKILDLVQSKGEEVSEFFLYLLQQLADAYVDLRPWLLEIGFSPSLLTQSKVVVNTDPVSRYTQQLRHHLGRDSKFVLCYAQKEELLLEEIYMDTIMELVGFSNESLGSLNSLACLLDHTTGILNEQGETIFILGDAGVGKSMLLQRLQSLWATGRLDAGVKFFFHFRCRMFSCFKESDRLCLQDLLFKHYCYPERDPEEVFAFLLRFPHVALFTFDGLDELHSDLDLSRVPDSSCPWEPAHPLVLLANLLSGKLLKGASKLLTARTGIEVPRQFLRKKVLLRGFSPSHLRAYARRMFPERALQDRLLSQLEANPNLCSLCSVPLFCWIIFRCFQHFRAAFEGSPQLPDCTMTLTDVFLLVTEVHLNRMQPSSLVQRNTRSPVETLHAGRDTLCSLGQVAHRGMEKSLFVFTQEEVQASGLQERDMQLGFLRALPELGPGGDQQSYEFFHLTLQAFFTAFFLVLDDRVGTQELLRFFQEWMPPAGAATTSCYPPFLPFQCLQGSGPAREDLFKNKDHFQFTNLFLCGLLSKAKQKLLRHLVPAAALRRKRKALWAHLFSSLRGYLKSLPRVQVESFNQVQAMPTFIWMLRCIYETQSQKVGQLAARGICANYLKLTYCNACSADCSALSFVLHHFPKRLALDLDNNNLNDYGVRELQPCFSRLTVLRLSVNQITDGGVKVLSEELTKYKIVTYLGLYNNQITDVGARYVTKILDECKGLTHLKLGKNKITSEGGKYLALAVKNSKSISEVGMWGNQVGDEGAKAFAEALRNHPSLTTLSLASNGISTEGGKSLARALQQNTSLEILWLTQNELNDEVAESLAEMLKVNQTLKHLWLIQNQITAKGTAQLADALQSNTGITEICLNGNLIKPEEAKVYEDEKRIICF
Chain of Nucleotide-binding oligomerization domain-containing protein 2 (Q9HC29 whole entry, the tested form may be a part): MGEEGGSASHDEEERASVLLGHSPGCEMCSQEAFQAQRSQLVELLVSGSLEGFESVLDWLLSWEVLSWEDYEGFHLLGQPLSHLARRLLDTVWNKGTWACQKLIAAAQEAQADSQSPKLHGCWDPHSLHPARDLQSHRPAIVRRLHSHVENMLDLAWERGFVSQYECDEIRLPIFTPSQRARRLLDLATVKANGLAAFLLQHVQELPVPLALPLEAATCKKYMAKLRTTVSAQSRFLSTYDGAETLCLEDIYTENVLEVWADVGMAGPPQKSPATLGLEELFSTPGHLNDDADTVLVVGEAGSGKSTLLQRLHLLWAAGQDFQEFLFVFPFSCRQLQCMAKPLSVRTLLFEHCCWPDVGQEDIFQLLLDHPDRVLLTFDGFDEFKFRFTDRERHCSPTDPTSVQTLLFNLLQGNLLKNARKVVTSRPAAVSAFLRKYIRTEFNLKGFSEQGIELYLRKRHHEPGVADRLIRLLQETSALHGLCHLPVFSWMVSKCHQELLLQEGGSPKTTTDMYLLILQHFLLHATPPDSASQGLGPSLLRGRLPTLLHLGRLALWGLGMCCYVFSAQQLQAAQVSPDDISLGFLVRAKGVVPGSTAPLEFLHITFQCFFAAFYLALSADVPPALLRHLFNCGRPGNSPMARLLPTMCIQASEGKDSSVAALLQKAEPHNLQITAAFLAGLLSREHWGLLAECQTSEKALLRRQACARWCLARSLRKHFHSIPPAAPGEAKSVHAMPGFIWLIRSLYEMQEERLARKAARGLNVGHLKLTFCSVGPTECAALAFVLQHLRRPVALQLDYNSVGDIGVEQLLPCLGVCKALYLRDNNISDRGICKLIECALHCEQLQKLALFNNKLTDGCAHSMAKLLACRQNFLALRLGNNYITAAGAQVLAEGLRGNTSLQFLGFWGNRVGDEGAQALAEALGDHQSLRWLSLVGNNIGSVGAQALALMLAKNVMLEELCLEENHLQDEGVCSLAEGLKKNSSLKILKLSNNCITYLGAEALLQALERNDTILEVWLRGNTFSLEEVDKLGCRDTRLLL
Chain of Lysine-specific demethylase 4C (Q9H3R0 whole entry): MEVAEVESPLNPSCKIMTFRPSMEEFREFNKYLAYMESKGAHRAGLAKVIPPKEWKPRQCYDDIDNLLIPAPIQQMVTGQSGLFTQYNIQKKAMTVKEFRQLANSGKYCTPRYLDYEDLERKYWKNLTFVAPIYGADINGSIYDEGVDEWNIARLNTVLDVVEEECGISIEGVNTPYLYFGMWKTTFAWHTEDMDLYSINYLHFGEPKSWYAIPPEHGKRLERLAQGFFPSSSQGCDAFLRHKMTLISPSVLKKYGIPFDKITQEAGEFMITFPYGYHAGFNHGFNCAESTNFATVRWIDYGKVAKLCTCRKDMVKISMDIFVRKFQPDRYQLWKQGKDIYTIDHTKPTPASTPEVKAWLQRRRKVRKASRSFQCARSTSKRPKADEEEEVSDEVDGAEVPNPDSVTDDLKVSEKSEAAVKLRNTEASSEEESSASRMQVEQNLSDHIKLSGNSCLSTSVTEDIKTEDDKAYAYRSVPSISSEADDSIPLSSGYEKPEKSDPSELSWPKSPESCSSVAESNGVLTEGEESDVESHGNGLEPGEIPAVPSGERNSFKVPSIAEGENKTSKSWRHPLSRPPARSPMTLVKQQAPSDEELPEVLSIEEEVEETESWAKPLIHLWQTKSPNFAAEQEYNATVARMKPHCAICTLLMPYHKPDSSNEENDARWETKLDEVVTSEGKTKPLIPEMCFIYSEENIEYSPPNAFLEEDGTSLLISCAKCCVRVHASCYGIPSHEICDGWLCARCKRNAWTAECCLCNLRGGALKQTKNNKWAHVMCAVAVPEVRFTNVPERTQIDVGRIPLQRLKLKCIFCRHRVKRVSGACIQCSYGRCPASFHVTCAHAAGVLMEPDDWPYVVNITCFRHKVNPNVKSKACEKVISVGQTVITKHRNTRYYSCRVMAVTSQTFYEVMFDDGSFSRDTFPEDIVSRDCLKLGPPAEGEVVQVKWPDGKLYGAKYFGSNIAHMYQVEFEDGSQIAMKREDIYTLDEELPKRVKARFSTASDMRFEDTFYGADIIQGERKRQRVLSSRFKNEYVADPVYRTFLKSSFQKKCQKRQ

Structure (SMILES): Cc1cccc(-n2nc3c4c(ccc3c2O)C(=O)c2ccccc2C4=O)c1
IC50 (HEK293 [1]): > 20 µM (inactive)
EC50 [2]: 114 µM (active)
IC50 [3]: 17.1 µM (active)
IC50 [4]: 17.8 µM (active)
EC50 (HEK293 [5]): 8.5 µM (active)
IC50 (HEK293 [6]): > 20 µM (inactive)
EC50 [7]: 30 µM (active)
IC50 (HEK293 [8]): > 20 µM (inactive)
IC50 (HEK293 [9]): > 20 µM (inactive)
IC50 (Tumor necrosis factor): 16.3 µM (active)

AC50 [10]: 20.6 µM (active)
Structure (SMILES): CC(C)CCN(C(=O)C1=COCCO1)c1c(N)n(Cc2ccccc2)c(=O)[nH]c1=O

IC50 [11]: > 79.4 µM (inactive)
IC50 [12]: > 79.4 µM (inactive)
IC50 [13]: > 79.4 µM (inactive)
Structure (SMILES): Cc1ccccc1Cn1cc(NC(=O)c2nn(C)cc2Cl)cn1

IC50 [14]: > 32 µM (inactive)
EC50 [15]: > 32 µM (inactive)
IC50 [16]: > 10 µM (inactive)
EC50 [17]: > 32 µM (inactive)
IC50 (Mu-type opioid receptor [18]): > 32 µM (inactive)
EC50 (Mu-type opioid receptor [19]): > 32 µM (inactive)
IC50 [20]: 24 µM (inactive)
Structure (SMILES): COc1ccc(S(=O)(=O)NCc2ccc(C(=O)NCCN(C)Cc3ccccc3)cc2)cc1
